Laboratory results published in patent US12636284B2, “Compositions for use in the prevention and/or treatment of intellectual disability and neurodegenerative diseases in a subject with down syndrome” (UNIVERSITA' DEGLI STUDI DI ROMA “LA SAPIENZA”, priority 2021, dated 2026).

Test system: GSK3b protein
Assay: GSK3b activation (pSer9/pTyr216 ratio) in primary hippocampal neurons isolated from Ts2Cje mice
Assay type: cell-based, mouse
Settings: 1, 5, 10 μM for 24 hours
Method: For Western blots, 20 μg of proteins from the hippocampus of mice belonging to the four experimental groups were separated by 4-15% SDS-PAGE CriterionTM […] (Bio-rad, Hercules, CAUSE). […] Therefore, the gel, once the image has been acquired, represents the total of the loaded proteins (Total Load), which will then be used to normalize the specific proteins to be examined. After electrophoresis and gel imaging, proteins are transferred via the semi-dry TransBlot Turbo apparatus (Bio-Rad Laboratories) onto nitrocellulose membranes (Bio-Rad, Hercules, CA, USA). Nitrocellulose membranes are blocked with 3% bovine serum albumin (BSA) in a solution of Tween 20-TBS and incubated overnight at 4° C. using specific primary antibodies: p([…])-GSK3B (1:1000, Santa Cruz, #sc-135653), p(S9)-GSK3β (1:1000, Cell Signaling, #5558S), GSK3β (1:1000 Abcam, #93926) and DYRK1A (1:1000, Cell Signaling, #8765S), MAPK44/42 (1:1000, Cell Signaling, #9102), p[…])-MAPK44/42 (1 1000, Cell Signaling, #9101), Akt (1:2000, Bio-Rad, # vma00253K), p(S473) Akt (1:1000, Cell Signaling, #4060S). After three washes with a T-TBS buffer solution, membranes were incubated for 1 hour at room temperature with the secondary antibodies. Secondary antibodies with peroxidase activity are anti-mouse or anti-rabbit (1:5000, Bio-rad, Hercules, CA, USA). […] Finally, the results obtained were analyzed using the ImageLab program (Bio-rad, Hercules, CA, USA). […] In order to isolate primary hippocampal neurons, hippocampi from Ts and euploid mice were mechanically dissociated in PBS (with Ca^2+ and […]) and centrifuged (3 minutes, 1100 rpm, 25° C.). Subsequently, the pellet was resuspended in 0.25% trypsin solution and centrifuged further for 3 minutes at 1100 rpm at Tamb. At this point, the cell extract was resuspended in MEM 1 culture medium (Minimum Essential Medium complemented with fetal bovine serum (FBS-1%), L-glutamine 200 mM (1%), glucose 25 mM (1%), gentamicin 0.1 mg/ml) and centrifuged for 10 minutes, 1100 rpm at 25° C. […]

Compound: N[C@@H](CC(=O)N1CCn2c(nnc2C(F)(F)F)C1)Cc1cc(F)c(F)cc1F [sitagliptin, (R)-4-oxo-4-[3-(trifluoromethyl)-5,6-dihydro[1,2,4]triazole[4,3-a]pyrazin-7(8H)-yl]-1-(2,4,5-trifluorophenyl)butan-2-amine]
- activity of the GSK3B protein in Ts2Cje neurons: significant increase
